One block for each molecule: values may come before it.
Assays:
[1] = tested on: primary kidney endothelial cell cultures; assay: Binding of Alexa-568-conjugated α1β1 integrin to treated primary kidney endothelial cells; format: cell-based, mouse
Protocol: Primary endothelial cells were isolated from wild type mouse kidneys using anti-CD31 coated metallic beads. Cells were cultured in endothelial cell medium (DMEM/F12, 50 μg/ml Endothelial mitogen, 1% penicillin/streptomycin, 20 mM L-Glutamine, and 1 U/mL heparin prepared fresh not filtered) containing 20% FCS. Thirty-two wells of 5×10^4 cells/well in a 96 well plate coated with 1% gelatin in sterile PBS were set up. Cells were maintained in endothelial cell media with 20% FCS until cells reached confluence. Confluent cells were washed with HBSS, then covered with endothelial cell media without serum at 200 μL/well and kept in a humidified chamber at 37° C., 5% CO2. Twenty-four hours later fresh endothelial cell medium was added without serum and various concentrations of MCP-1 and H2O2 were added at 24 or 48 hours (hrs) prior to conducting the assay for cell binding to α1β1 integrin as shown in the following Table 1.

[2] = tested on: renal cortical vascular endothelium; assay: Binding of Alexa 568-labeled purified α1β1 integrin to kidney vascular endothelium after tail vein injection; format: in vivo, mouse; settings: 24 hours after tail vein injection
Description: If such a direct role exists, there must be a ligand for α1β1 integrin on the renal cortical vascular endothelium of Alport mice that is absent on normal mice. To test for the presence of such a ligand, purified α1β1 integrin (purchased from Chemicon, Temecula, Calif.) was labeled with Alexa 568, and the labeled integrin injected into the tail vein of normal, Alport, and DKO mice. Twenty-four hours following the injection, kidneys were harvested, and cryosections examined. […] Since monocytes phagocytize labeled dextrans, what is interpreted as integrin might be phagocytized integrin in monocytes.

[3] = Pilot stability study with Alexa-conjugated integrin α1β1; settings: Alexa-conjugated integrin α1β1, data not shown
Protocol: In an attempt to provide a more definitive test for the function of α1β1 in monocyte efflux into diseased kidneys, 5 μg of purified α1β1 integrin was injected into the tail vein of Alport mice daily, starting one day before injection of labeled dextrans, and kidneys harvested three days following injection of dextrans. Pilot studies with Alexa-conjugated integrin α1β1 were conducted to assess the stability prior to the blocking experiments. […] If transendothelial migration of monocytes into the interstitial space is mediated, in part, through binding a ligand on endothelial cells, a decrease in labeled monocytes in Alport mice treated with α1β1 integrin compared to untreated age-matched Alport mice should be observed, since the purified integrin should occupy ligand, making less available for binding to monocytes.

[4] = target: T1, ligand for α1β1 integrin on endothelial cells (Collagen XIII) (Mus musculus, UniProt Q9R1N9); assay: Monocyte efflux into the interstitium of Alport kidneys after injection of purified α1β1 integrin (Alexa 568 dextran trafficking); format: in vivo; settings: Alport mice, 5 μg purified α1β1 integrin into tail vein daily from one day before labeled dextrans, kidneys three days after dextrans, vs untreated Alport mice
T1 construct: from tissue; host or cells: vascular endothelium of kidneys of living Alport (collagen IV α3 -/-) mice
Description: Male wild type 129SV and 129SVJ mice (4-12 weeks old) along with collagen IV α3 (−/−) (Alport: 5-8 weeks old) and collagen IV α3 (−/−)/integrin α1 (−/−) double knock out (DKO: 8-12 weeks old) mice were tail vein injected with […] of Alexa 568 labeled dextran reconstituted in 100 microliters (μL) Hanks Balanced Salt Solution (pH 7.2). Three days post injection animals were given a lethal injection of averitin (0.55 grams per kilogram (g/kg) body weight; ip) followed by cardiac perfusion with ice cold PBS. Kidneys were removed and immersed in increasing concentrations of ice cold sucrose (30% max) then embedded in Tissue Tek OCT mounting medium (Sakura Finetek USA, Inc., Torrence, Calif.) and stored at −80° C.
Fresh frozen tissue sections (4 μm) were fixed in 2% paraformaldehyde for 5 minutes and allowed to dry overnight at 4° C. followed by extended storage at −20° C. or immunohistochemical detection of monocytes using rat monoclonal α-CD11b (Cedar Lane laboratories, Hornby, Ontario) and Goat anti rat Alexa 488 (Molecular Probes, Inc. Eugene, Oreg.) antibodies at 1:100 and 1:200 dilutions respectively. Sections were cover slipped with vectorshield mounting medium (Vector Corp. Burlingme, Calif.). […] Green fluorescence alone as well as co-localized dual fluorescence were measured using Image Pro Plus software (Media Cybernetics, Inc. Silver Spring, Md.). […]

T1 sequence (Q9R1N9 whole entry): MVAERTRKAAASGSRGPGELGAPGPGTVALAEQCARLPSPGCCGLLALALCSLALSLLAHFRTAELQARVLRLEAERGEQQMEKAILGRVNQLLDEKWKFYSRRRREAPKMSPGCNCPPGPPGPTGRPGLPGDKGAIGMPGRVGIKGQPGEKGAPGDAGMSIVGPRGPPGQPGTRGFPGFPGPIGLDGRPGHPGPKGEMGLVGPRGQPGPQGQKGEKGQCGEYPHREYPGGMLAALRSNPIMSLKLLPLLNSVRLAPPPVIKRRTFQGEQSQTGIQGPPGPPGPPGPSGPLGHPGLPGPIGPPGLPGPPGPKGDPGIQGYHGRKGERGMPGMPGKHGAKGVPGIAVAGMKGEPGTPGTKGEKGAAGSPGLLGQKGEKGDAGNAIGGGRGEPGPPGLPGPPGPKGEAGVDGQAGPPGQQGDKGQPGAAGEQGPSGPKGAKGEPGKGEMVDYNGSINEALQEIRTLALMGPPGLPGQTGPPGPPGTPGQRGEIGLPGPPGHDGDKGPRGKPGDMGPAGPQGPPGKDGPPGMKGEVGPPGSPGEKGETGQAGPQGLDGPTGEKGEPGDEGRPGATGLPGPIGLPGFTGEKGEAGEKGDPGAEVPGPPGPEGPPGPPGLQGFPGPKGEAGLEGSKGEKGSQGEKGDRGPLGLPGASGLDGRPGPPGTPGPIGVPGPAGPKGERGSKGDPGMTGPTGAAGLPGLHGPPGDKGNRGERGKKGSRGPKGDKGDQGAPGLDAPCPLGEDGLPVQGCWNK

Molecule: OO [hydrogen peroxide, reference compound]
binding of Alexa-conjugated α1β1 integrin to cultured primary kidney endothelial cells ([1]; cells treated with hydrogen peroxide (24 or 48 hrs), concentration and time-dependent): promotes the binding

Molecule: MCP-1: recombinant monocyte chemo-attractive protein-1, a chemokine
adhesion of α1β1 integrin to endothelial cells ([1]; cells pre-treated with recombinant MCP-1 (24 or 48 hrs) vs untreated cells, time and dose dependent): significantly elevated adhesion

labeling of kidney cryosections by Alexa 568-labeled integrin ([2]; normal (control) mice): absence of label
Molecule: purified α1β1 integrin: purified human α1β1 integrin purchased from Chemicon, Temecula, Calif.; also used labeled with Alexa 568
labeling of kidney cryosections by Alexa 568-labeled integrin ([2]; Alport mice): strong labeling in the vascular endothelium
stability of the purified integrin [3]: at least 72 hours
monocyte efflux (Alexa-labeled CD11b-positive monocytes in the interstitium) [4]: a trend for a reduction in monocyte efflux
